Literature values, collected in US11434242B2, “Dopamine-b-hydroxylase inhibitors” (BIAL-PORTELA & Cª, S.A., priority 2017, dated 2022).
pIC50: −log10 of the molar value.

Assays:
[1] = test system: DβH; conditions: Stanley et al., Br. J. Pharmacol. 1997; cited from earlier work
[2] = literature; cited from earlier work

NCc1c[nH]c(=S)n1[C@H]1CCc2c(F)cc(F)cc2C1 [nepicastat]
pIC50 [1]: 8.05
crossing of the BBB [2]: cross the BBB
